According to the NIST ThermoML archive (doi:10.1016/j.jct.2012.08.004):
Where “and” joins values, the source holds several entries; their conditions need not be identical. Identical values can stand only once.

Conditions: Crystal, Calculated from knudsen effusion weight loss

O=c1cc[nH]c(=S)[nH]1 [2-thiouracil]
Conditions | vapor or sublimation pressure
421.15 K | 0.0001325 kPa and 0.000123 kPa and 0.0001236 kPa
423.21 K | 0.0001553 kPa and 0.0001548 kPa and 0.0001474 kPa
425.22 K | 0.0001891 kPa and 0.000178 kPa and 0.0001835 kPa
427.15 K | 0.0002128 kPa and 0.0002092 kPa and 0.0002223 kPa
429.2 K | 0.0002611 kPa and 0.0002488 kPa and 0.0002569 kPa
431.23 K | 0.0003061 kPa and 0.0002978 kPa and 0.0003042 kPa
433.16 K | 0.0003652 kPa and 0.0003584 kPa and 0.0003803 kPa
435.2 K | 0.0004422 kPa and 0.0004176 kPa and 0.0004406 kPa
437.24 K | 0.0005206 kPa and 0.0005016 kPa and 0.0005328 kPa
439.16 K | 0.0005912 kPa and 0.0005684 kPa and 0.0006221 kPa
441.22 K | 0.000693 kPa and 0.000706 kPa and 0.0006718 kPa
443.26 K | 0.000834 kPa and 0.0008404 kPa and 0.0008041 kPa

Cc1c[nH]c(=S)[nH]c1=O [5-methyl-2-thiouracil]
Conditions | vapor or sublimation pressure
413.15 K | 0.0001771 kPa and 0.0001698 kPa
415.25 K | 0.0002113 kPa and 0.000217 kPa and 0.0002102 kPa
417.15 K | 0.0002538 kPa and 0.0002498 kPa
417.24 K | 0.0002506 kPa
419.23 K | 0.0003129 kPa and 0.0003018 kPa and 0.0003131 kPa
421.24 K | 0.0003606 kPa and 0.0003744 kPa
423.16 K | 0.0004363 kPa and 0.0004213 kPa and 0.0004419 kPa
425.2 K | 0.0005302 kPa and 0.000505 kPa and 0.0005103 kPa
427.22 K | 0.0006121 kPa and 0.000601 kPa and 0.0006259 kPa
429.15 K | 0.0007317 kPa and 0.0007071 kPa and 0.0007522 kPa
431.22 K | 0.0008692 kPa and 0.0008414 kPa and 0.000852 kPa
433.24 K | 0.001032 kPa and 0.001018 kPa and 0.001053 kPa

Cc1cc(=O)[nH]c(=S)[nH]1 [6-methyl-2-thiouracil]
Conditions | vapor or sublimation pressure
421.16 K | 0.000106 kPa and 9.78e-05 kPa
423.15 K | 0.0001239 kPa and 0.0001238 kPa and 0.0001199 kPa
425.17 K | 0.000145 kPa and 0.000136 kPa and 0.0001411 kPa
427.16 K | 0.0001623 kPa and 0.0001711 kPa and 0.0001818 kPa
429.17 K | 0.0002135 kPa and 0.0002 kPa and 0.0002154 kPa
431.16 K | 0.0002301 kPa and 0.0002471 kPa
431.19 K | 0.0002525 kPa and 0.0002434 kPa and 0.0002473 kPa
433.2 K | 0.0002894 kPa and 0.0002713 kPa and 0.0002913 kPa
435.22 K | 0.0003418 kPa and 0.0003333 kPa and 0.0003423 kPa
437.17 K | 0.0004046 kPa [middle of 5 runs]
439.2 K | 0.0005278 kPa and 0.0004968 kPa and 0.0004799 kPa
439.22 K | 0.0004689 kPa and 0.000478 kPa and 0.0004523 kPa
441.23 K | 0.0005644 kPa [middle of 5 runs]
443.16 K | 0.0006925 kPa and 0.0006452 kPa
443.17 K | 0.0006889 kPa and 0.0006567 kPa
445.2 K | 0.0007983 kPa and 0.0007787 kPa
445.21 K | 0.000813 kPa and 0.0008056 kPa and 0.0007574 kPa
447.24 K | 0.0009485 kPa [middle of 6 runs]
